Experimental data as given in patent US11873295B2, “Allosteric chromenone inhibitors of phosphoinositide 3-kinase (PI3K) for the treatment of disease” (Petra Pharma Corporation, priority 2021, dated 2024).

Columns and labels:
[1] = system: PI3K-α (PIK3CA) in MDA-MB-453 cells; experiment: PI3K-alpha kinase (PIK3CA) activity in vitro cell based assay, MDA-MB-453 cells, AlphaLisa SureFire; conditions: Homo sapiens, MDA-MB-453, 3 h, 0% FBS, 3 hours treatment, relative IC50
Outline: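 MDA-MB-453 cells in serum-free MEM with 1 μg/mL insulin treated 3 h with 10-point 1:3 compound dilutions, 0.3% DMSO. Lysates read by AlphaLisa SureFire; percent inhibition relative to DMSO (max) and 1 μM GDC-0032 (min), duplicate means fitted to 4-parameter logistic for relative IC50.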

[2] = biological target: T1, human full length PIK3KA Wild-type (p110α/p85α complex) (Homo sapiens, UniProt P42336); experiment: PI3K-alpha kinase (PIK3CA) biochemical activity, wild-type, ADP-Glo; conditions: PI3K-α (PIK3CA) biochemical, Soy PI lipid substrate
T1 construct: Recombinant, catalytically active human full length PIK3KA Wild-type and H1047R mutant were purchased as 1:1 complex; 6xHis (N); purchased EMD Millipore Sigma 14-602M
Outline: (§1)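 Full-length His-p110α/p85α complex, wild-type or H1047R, 1–5 nM, preincubated with compound 1 h at 27 °C in HEPES pH 7.4, 25 mM MgCl2, 0.01% Triton X-100, 1% DMSO. Reaction with 20 μM ATP and 50 μM PIP2diC8 or soy PI at 27 °C to ~10% ATP conversion; ADP-Glo luminescence. IC50 from 10-point four-parameter logistic fit.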

[3] = biological target: T2, human full length PIK3KA H1047R mutant (p110α/p85α complex) (Homo sapiens, UniProt P42336, H1047R); experiment: PI3K-alpha kinase (PIK3CA) biochemical activity, H1047R mutant, ADP-Glo; conditions: PI3K-α (PIK3CA) biochemical, H1047R mutant, Soy PI lipid substrate
T2 construct: Recombinant, catalytically active human full length PIK3KA Wild-type and H1047R mutant were purchased as 1:1 complex; 6xHis (N); purchased EMD Millipore Sigma 14-792M
T2 sequence (P42336 whole entry H1047R): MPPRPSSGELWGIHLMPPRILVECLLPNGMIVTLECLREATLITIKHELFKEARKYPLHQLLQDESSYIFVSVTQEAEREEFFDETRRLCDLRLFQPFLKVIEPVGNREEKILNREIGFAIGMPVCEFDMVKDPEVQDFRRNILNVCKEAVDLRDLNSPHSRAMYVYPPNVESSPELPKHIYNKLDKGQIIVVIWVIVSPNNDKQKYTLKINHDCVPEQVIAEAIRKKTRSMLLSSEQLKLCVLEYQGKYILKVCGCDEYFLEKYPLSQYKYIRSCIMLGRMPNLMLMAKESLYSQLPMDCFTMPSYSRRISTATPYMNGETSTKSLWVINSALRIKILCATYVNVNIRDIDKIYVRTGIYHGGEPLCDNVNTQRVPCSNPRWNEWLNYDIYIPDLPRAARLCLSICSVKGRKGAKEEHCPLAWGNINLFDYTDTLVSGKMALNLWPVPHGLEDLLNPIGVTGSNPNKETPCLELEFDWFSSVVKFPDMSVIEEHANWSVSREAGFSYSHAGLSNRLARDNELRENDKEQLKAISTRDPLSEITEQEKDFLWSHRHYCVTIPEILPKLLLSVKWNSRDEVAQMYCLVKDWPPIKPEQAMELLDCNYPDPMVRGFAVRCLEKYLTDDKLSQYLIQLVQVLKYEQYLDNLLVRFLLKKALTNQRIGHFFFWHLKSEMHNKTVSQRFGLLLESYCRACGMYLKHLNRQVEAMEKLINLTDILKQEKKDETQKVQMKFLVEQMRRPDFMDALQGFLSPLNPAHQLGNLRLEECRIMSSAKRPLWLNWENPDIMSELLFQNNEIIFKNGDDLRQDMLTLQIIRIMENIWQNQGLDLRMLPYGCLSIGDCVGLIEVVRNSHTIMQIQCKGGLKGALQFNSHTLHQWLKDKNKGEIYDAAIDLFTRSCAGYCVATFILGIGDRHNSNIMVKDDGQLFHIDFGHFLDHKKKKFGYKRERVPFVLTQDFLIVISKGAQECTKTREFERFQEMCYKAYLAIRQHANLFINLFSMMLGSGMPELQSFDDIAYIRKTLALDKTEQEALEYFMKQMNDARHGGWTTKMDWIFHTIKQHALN
T2 sequence (P27986 whole entry partner): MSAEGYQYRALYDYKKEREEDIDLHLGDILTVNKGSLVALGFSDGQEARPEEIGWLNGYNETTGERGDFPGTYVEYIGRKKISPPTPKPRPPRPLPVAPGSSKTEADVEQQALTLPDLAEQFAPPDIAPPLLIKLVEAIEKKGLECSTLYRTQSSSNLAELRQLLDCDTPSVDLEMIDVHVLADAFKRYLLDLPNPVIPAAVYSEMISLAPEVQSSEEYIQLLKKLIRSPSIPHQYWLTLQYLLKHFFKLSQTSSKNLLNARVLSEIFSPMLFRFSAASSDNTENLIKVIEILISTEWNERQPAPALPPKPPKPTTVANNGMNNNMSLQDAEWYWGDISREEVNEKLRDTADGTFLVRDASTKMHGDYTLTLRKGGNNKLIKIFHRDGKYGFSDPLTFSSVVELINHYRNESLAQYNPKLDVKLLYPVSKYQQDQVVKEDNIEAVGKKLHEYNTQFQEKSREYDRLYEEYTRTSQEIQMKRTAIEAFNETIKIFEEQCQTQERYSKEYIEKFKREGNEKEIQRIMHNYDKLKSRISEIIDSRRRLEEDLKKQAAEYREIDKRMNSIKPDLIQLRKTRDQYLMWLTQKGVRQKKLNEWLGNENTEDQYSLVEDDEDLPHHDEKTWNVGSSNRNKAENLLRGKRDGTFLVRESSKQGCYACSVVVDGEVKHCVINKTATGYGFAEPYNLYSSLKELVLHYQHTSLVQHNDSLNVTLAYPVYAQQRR
Outline: as §1

IC50 [1] [nM]	IC50 [2] [nM]	IC50 [3] [nM]	Compound
50 to 100	1000 to 5000	< 500	Cc1cc([C@@H](C)Nc2ccc(C)nc2C(=O)O)c2oc(-c3cccc(C#N)c3)c(C)c(=O)c2c1 [Example 127, 3-[[(1R)-1-[2-(3-Cyanophenyl)-3,6-dimethyl-4-oxo-chromen-8-yl]ethyl]amino]-6-methyl-pyridine-2-carboxylic acid]
50 to 100	1000 to 5000	< 500	Cc1cc([C@@H](C)Nc2ccc(C(F)(F)F)cc2C(=O)O)c2oc(-c3cccc(C#N)c3)c(C)c(=O)c2c1 [Example 128, 2-[[(1R)-1-[2-(3-Cyanophenyl)-3,6-dimethyl-4-oxo-chromen-8-yl]ethyl]amino]-5-(trifluoromethyl)benzoic acid]
< 50	< 500	< 500	Cc1cc([C@@H](C)Nc2ccc(F)cc2C(=O)O)c2oc(-c3cccc(C#N)c3)c(C)c(=O)c2c1 [Example 129, 2-[[(1R)-1-[2-(3-Cyanophenyl)-3,6-dimethyl-4-oxo-chromen-8-yl]ethyl]amino]-5-fluoro-benzoic acid]
< 50	1000 to 5000	< 500	Cc1cc([C@@H](C)Nc2cccc(F)c2C(=O)O)c2oc(-c3ccc(F)cc3F)c(C)c(=O)c2c1 [Example 130, 2-[[(1R)-1-[2-(2,4-Difluorophenyl)-3,6-dimethyl-4-oxo-chromen-8-yl]ethyl]amino]-6-fluoro-benzoic acid 2,2,2-trifluoroacetic acid]
< 50	1000 to 5000	< 500	Cc1cc([C@@H](C)Nc2ccc(Cl)nc2C(=O)O)c2oc(-c3ccc(F)cc3F)c(C)c(=O)c2c1 [Example 131, 6-Chloro-3-[[(1R)-1-[2-(2,4-difluorophenyl)-3,6-dimethyl-4-oxo-chromen-8-yl]ethyl]amino]pyridine-2-carboxylic acid 2,2,2-trifluoroacetic acid]
< 50	5000 to 10000	< 500	Cc1cc([C@@H](C)Nc2ccc(C)nc2C(=O)O)c2oc(-c3cccc(F)c3)c(C)c(=O)c2c1 [Example 134, 3-[[(1R)-1-[2-(3-Fluorophenyl)-3,6-dimethyl-4-oxo-chromen-8-yl]ethyl]amino]-6-methyl-pyridine-2-carboxylic acid]
< 50	500 to 1000	< 500	COc1ccc(N[C@H](C)c2cc(C)cc3c(=O)c(C)c(-c4ccccc4)oc23)c(C(=O)O)n1 [Example 135, 6-Methoxy-3-[[(1R)-1-(3,6-dimethyl-4-oxo-2-phenyl-chromen-8-yl)ethyl]amino]pyridine-2-carboxylic acid 2,2,2-trifluoroacetic acid]
50 to 100	5000 to 10000	500 to 1000	Cc1cc([C@@H](C)Nc2cccnc2C(=O)O)c2oc(-c3cccc(F)c3)c(C)c(=O)c2c1 [Example 136, 3-[[(1R)-1-[2-(3-Fluorophenyl)-3,6-dimethyl-4-oxo-chromen-8-yl]ethyl]amino]pyridine-2-carboxylic acid]
< 50	1000 to 5000	< 500	Cc1cc([C@@H](C)Nc2ncccc2C(=O)O)c2oc(-c3ccccc3)c(C)c(=O)c2c1 [Example 137, 2-[[(1R)-1-(3,6-Dimethyl-4-oxo-2-phenyl-chromen-8-yl)ethyl]amino]pyridine-3-carboxylic acid]
100 to 500	> 10000	< 500	Cc1cc([C@@H](C)Nc2cnccc2C(=O)O)c2oc(-c3ccccc3)c(C)c(=O)c2c1 [Example 138, 3-[[(1R)-1-(3,6-Dimethyl-4-oxo-2-phenyl-chromen-8-yl)ethyl]amino]pyridine-4-carboxylic acid]
< 50	1000 to 5000	< 500	Cc1cc(C(C)Nc2ccc(Cl)nc2C(=O)O)c2oc(-c3ccccc3)c(I)c(=O)c2c1 (stereo not drawn) [Example 140, 6-Chloro-3-[1-(3-iodo-6-methyl-4-oxo-2-phenyl-chromen-8-yl)ethylamino]pyridine-2-carboxylic acid 2,2,2-trifluoroacetic acid]
< 50	< 500	< 500	Cc1cc([C@@H](C)Nc2ccc(Br)nc2C(=O)O)c2oc(-c3cccc(C#N)c3)c(C)c(=O)c2c1 [Example 141, 6-Bromo-3-[[(1R)-1-[2-(3-cyanophenyl)-3,6-dimethyl-4-oxo-chromen-8-yl]ethyl]amino]pyridine-2-carboxylic acid]
50 to 100	> 10000	1000 to 5000	Cc1cc([C@@H](C)Nc2cccnc2C(=O)O)c2oc(-c3ccccc3F)c(C)c(=O)c2c1 [Example 142, 3-[[(1R)-1-[2-(2-Fluorophenyl)-3,6-dimethyl-4-oxo-chromen-8-yl]ethyl]amino]pyridine-2-carboxylic acid]
< 50	500 to 1000	< 500	Cc1cc([C@@H](C)Nc2ccc(Cl)cc2C(=O)O)c2oc(-c3cccc(C#N)c3)c(C)c(=O)c2c1 [Example 144, 5-Chloro-2-[[(1R)-1-[2-(3-cyanophenyl)-3,6-dimethyl-4-oxo-chromen-8-yl]ethyl]amino]benzoic acid]
< 50	1000 to 5000	< 500	Cc1cc([C@@H](C)Nc2ccc(Cl)cc2C(=O)O)c2oc(-c3cccc(F)c3)c(C)c(=O)c2c1 [Example 145, 5-Chloro-2-[[(1R)-1-[2-(3-fluorophenyl)-3,6-dimethyl-4-oxo-chromen-8-yl]ethyl]amino]benzoic acid]
< 50	1000 to 5000	1000 to 5000	Cc1cc([C@@H](C)Nc2ccc(Cl)cc2C(=O)O)c2oc(-c3ccc(F)c(F)c3)c(C)c(=O)c2c1 [Example 146, 5-Chloro-2-[[(1R)-1-[2-(3,4-difluorophenyl)-3,6-dimethyl-4-oxo-chromen-8-yl]ethyl]amino]benzoic acid]
< 50	1000 to 5000	500 to 1000	Cc1cc([C@@H](C)Nc2ccc(Cl)cc2C(=O)O)c2oc(-c3ccccc3F)c(C)c(=O)c2c1 [Example 147, 5-Chloro-2-[[(1R)-1-[2-(2-fluorophenyl)-3,6-dimethyl-4-oxo-chromen-8-yl]ethyl]amino]benzoic acid]
< 50	5000 to 10000	500 to 1000	Cc1cc([C@@H](C)Nc2ccc(C)nc2C(=O)O)c2oc(-c3ccccc3F)c(C)c(=O)c2c1 [Example 148, 3-[[(1R)-1-[2-(2-Fluorophenyl)-3,6-dimethyl-4-oxo-chromen-8-yl]ethyl]amino]-6-methyl-pyridine-2-carboxylic acid]
< 50	1000 to 5000	< 500	COC(=O)c1ccc(-c2oc3c([C@@H](C)Nc4ccccc4C(=O)O)cc(C)cc3c(=O)c2C)cc1 [Example 149, 2-[[(1R)-1-[2-(4-Methoxycarbonylphenyl)-3,6-dimethyl-4-oxo-chromen-8-yl]ethyl]amino]benzoic acid]
< 50	1000 to 5000	< 500	COC(=O)c1cccc(-c2oc3c([C@@H](C)Nc4ccccc4C(=O)O)cc(C)cc3c(=O)c2C)c1 [Example 150, 2-[[(1R)-1-[2-(3-Methoxycarbonylphenyl)-3,6-dimethyl-4-oxo-chromen-8-yl]ethyl]amino]benzoic acid]
< 50	1000 to 5000	< 500	CNC(=O)c1ccc(-c2oc3c([C@@H](C)Nc4ccccc4C(=O)O)cc(C)cc3c(=O)c2C)cc1 [Example 151, 2-[[(1R)-1-[3,6-Dimethyl-2-[4-(methylcarbamoyl)phenyl]-4-oxo-chromen-8-yl]ethyl]amino]benzoic acid]
< 50	> 10000	< 500	CNC(=O)c1cccc(-c2oc3c([C@@H](C)Nc4ccccc4C(=O)O)cc(C)cc3c(=O)c2C)c1 [Example 152, 2-[[(1R)-1-[3,6-Dimethyl-2-[3-(methylcarbamoyl)phenyl]-4-oxo-chromen-8-yl]ethyl]amino]benzoic acid]
100 to 500	1000 to 5000	< 500	COc1ncc(N[C@H](C)c2cc(C)cc3c(=O)c(C)c(-c4ccccc4)oc23)c(C(=O)O)n1 [Example 155, 2-Methoxy-5-[[(1R)-1-(3,6-dimethyl-4-oxo-2-phenyl-chromen-8-yl)ethyl]amino]pyrimidine-4-carboxylic acid 2,2,2-trifluoroacetic acid]
100 to 500	1000 to 5000	500 to 1000	Cc1cc([C@@H](C)Nc2ccccc2C(=O)O)c2oc(-c3ccccc3)c(-c3cccnc3)c(=O)c2c1 [Example 156, 2-[[(1R)-1-[6-Methyl-4-oxo-2-phenyl-3-(3-pyridyl)chromen-8-yl]ethyl]amino]benzoic acid 2,2,2-trifluoroacetic acid]
< 50	500 to 1000	< 500	Cc1cc([C@@H](C)Nc2ccccc2C(=O)O)c2oc(-c3ccc(-c4c[nH]nc4C)cc3)c(C)c(=O)c2c1 [Example 161, 2-[[(1R)-1-[3,6-Dimethyl-2-[4-(3-methyl-1H-pyrazol-4-yl)phenyl]-4-oxo-chromen-8-yl]ethyl]amino]benzoic acid]
